Experimental data as given in paper PMC9655717, “New Molecules of Diterpene Origin with Inhibitory Properties toward α-Glucosidase” (International Journal of Molecular Sciences, 2022).
≈ marks a conversion by molar mass, not a printed value. Read-outs that look alike come from different tables or passages of the source.

Legend:
[1] = molecular target: T1, yeast α-GLy (α-glucosidase, Sigma G0660) (Saccharomyces cerevisiae, UniProt P53341); test: biochemical; type: biochemical; settings: yeast α-glucosidase; for IC50: 37°C, pH 6.8
T1 construct: purchased Sigma G0660
T1 sequence (P53341 whole entry): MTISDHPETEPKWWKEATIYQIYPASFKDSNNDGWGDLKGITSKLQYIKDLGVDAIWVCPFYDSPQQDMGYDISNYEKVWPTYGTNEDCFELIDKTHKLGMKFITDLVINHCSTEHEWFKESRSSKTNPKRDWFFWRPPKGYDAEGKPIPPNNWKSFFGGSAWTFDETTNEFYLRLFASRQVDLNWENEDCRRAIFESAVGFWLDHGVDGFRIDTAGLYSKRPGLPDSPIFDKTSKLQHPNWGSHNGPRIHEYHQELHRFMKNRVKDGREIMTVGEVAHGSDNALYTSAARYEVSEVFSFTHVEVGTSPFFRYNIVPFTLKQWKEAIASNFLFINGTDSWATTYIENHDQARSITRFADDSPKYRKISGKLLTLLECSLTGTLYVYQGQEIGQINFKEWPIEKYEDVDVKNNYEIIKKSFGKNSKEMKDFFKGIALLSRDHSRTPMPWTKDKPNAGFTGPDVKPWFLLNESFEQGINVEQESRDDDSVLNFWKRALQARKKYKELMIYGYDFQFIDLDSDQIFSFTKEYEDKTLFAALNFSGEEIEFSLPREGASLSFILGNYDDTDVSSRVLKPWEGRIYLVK
Protocol: S1. Materials and Methods […]
glucosidase inhibition assay. α-Glucosidase enzyme inhibition assay was carried out in a 96-well microplate. The method’s principle based on the hydrolyzed reaction of 4-nitrophenyl-α-D-glucopiranoside with α-glucosidase enzyme into yellow 4- […]
p-Nitrophenyl α-D-Glucoside a- Gl ucosidas e α-D-Glucose + p- Nitrophenol α-Glucosidase inhibitory activity assay was performed following the modified method of Pistia Brueggeman and Hollingsworth with slight modification. Quinopimaric […]
concentrations of 256, 64, 16, 4 and 1 µg/mL. In a 96-well plate, a reaction mixture containing 20 μL of phosphate buffer (100 mM; pH 6.8), 20 μL of α-glucosidase (0.3 U/mL, Sigma G0660) (this concentration was determined by a series of α-glucosidase […]
linearity between the enzyme concentration and the absorbance of yellow color mixture after reaction which was approximately 5-fold higher than the back ground and at least […]
concentrations was pre-incubated for 10 min at 37°C. Then 20 μL of […] p-nitrophenyl α-D-glucopyranoside (Sigma N1377) was added to the mixture as a substrate. After further incubation at 37°C for 30 min, the reaction was stopped by adding 80 μL of 0.1 […]
solution were prepared using the phosphate buffer […]; pH 6.8. […]
as a positive control and water as negative control. The yellow color produced was quantitated by colorimetric analysis and reading the absorbance at 410 nm. Each experiment was performed in triplicates, along with appropriate blanks. The solvent DMSO was use as negative control to evaluate its effect on α-glucosidase activity. […]
or substrate in negative control. Back ground was determined by volume of buffer as […]
The % inhibition has been obtained using the formula:
% inhibition = {Absorbance (control) –Absorbance (sample)}/Absorbance (control) IC50 value is defined as the concentration of samples inhibiting 50% of α-glucosidase activity under the stated assay conditions. […]

[2] = DPPH radical scavenging assay; settings: DPPH 0.1 mM in methanol, 25°C, 30 min
Protocol: DPPH radical scavenging assay as described by Ha. The hydrogen atom donating ability of the plant extractives was determined by the decolorization of methanol solution of 2,2-diphenyl-1-picrylhydrazyl (DPPH). DPPH produces purple color in methanol solution and fades to shades of yellow color in the presence of antioxidants. […]
DPPH (0.1 mM) was diluted in methanol. 200 μL of this solution was added to 1.3 μL of various concentrations of compounds in DMSO (256.0, 64.0, 16.0, and 4.0 μg/mL). The mixture was performed by a 96-well plate at 25 °C in 30 min. Then, absorbance was determined by Epoch™ Microplate Spectrophotometer (at 517 nm). The percentage of DPPH quenching activity was computed by the following formula:
Inhibitory percentage SC (%) = [(Ao - A1)/Ao] × 100. where AO was defined as the absorbance of control reaction, and A1 represented for the absorbance in the presence of test or standard sample. Each experiment was repeated three times. Quercetin was used as a reference compound. […]

[3] = test system: Bacillus subtilis (ATCC 6633); test: Antimicrobial broth microdilution; type: cell-based; settings: ATCC6633, B. subtilis
Protocol: (§1) Table S2. The result of antimicrobial tests of compounds 38, 45, 48 and 50.
(§2) Gram (+) strains Gram (-) strains Fungi
(§3) Compound Values (µg/ml) S. aureus B. L. S. E. P. C. subtilis fermentum enterica coli aeruginosa albican
(§4) The antimicrobial activity was determined by broth microdilution method as reported by. Broth dilution testing is one of the common methods used for determination of the MICs and IC50. The compounds are examined for visible bacterial growth as evidenced by turbidity. […]
(§5) S1.5. In vitro antimicrobial activity study of compounds 38, 45, 48 and 50 The Gram-positive bacteria: Bacillus subtilis (ATCC 6633), Lactobacillus fermentum (N4), Staphylococcus aureus (ATCC 13709); Gram -negative bacteria: Escherichia coli (ATCC 25922), Pseudomonas aeruginosa (ATCC 15442), Salmonella enterica; Yeast: Candida albicans (ATCC 10231) were obtained from American Type Culture Collection. The bacterial […]
(§6) Sabourand 2% dextrose broth, were purchased from Merck. […]
(§7) remaining at –80 0 C. Before assay, they were activated by culture medium and, adjusted the concentration to 5x10^5 CFU/mL. 10 μL of each concentration of each test […]
(§8) further incubated at 37 °C within 16-24h. The experiment was triplicated. Positive […]
(§9) medium without bacteria as a negative control. Ampicillin was used as a reference […]
(§10) inhibiting 50% the visible growth of the tested microorganisms. MIC, IC50 values are typically expressed as molar concentration. […]
(§11) treated with sample different concentrations on 96-well plates. Untreated cells represented the controls. […]
(§12) crystals are visible. Remove MTT and add DMSO solution (100 μL). The optical density […]
(§13) are evaluated to have cytotoxic activity.

[4] = test system: Candida albicans (ATCC 10231); test: Antimicrobial broth microdilution; type: cell-based; settings: ATCC10231, C. albican
Protocol: as §1, §2, §3, §4, §5, §6, §7, §8, §9, §10, §11, §12, §13

[5] = test system: Escherichia coli (ATCC 25922); test: Antimicrobial broth microdilution; type: cell-based; settings: ATCC25922, E. coli
Protocol: as §1, §2, §3, §4, §5, §6, §7, §8, §9, §10, §11, §12, §13

[6] = test system: Lactobacillus fermentum (N4); test: Antimicrobial broth microdilution; type: cell-based; settings: L. fermentum
Protocol: as §1, §2, §3, §4, §5, §6, §7, §8, §9, §10, §11, §12, §13

[7] = test system: Pseudomonas aeruginosa (ATCC 15442); test: Antimicrobial broth microdilution; type: cell-based; settings: ATCC15442, P. aeruginosa
Protocol: as §1, §2, §3, §4, §5, §6, §7, §8, §9, §10, §11, §12, §13

[8] = test system: Salmonella enterica; test: Antimicrobial broth microdilution; type: cell-based; settings: S. enterica
Protocol: as §1, §2, §3, §4, §5, §6, §7, §8, §9, §10, §11, §12, §13

[9] = test system: Staphylococcus aureus (ATCC 13709); test: Antimicrobial broth microdilution; type: cell-based; settings: ATCC13709, S. aureus
Protocol: as §1, §2, §3, §4, §5, §6, §7, §8, §9, §10, §11, §12, §13

[10] = MTT cytotoxicity assay; settings: human
Protocol: The cytotoxic activity of compounds was evaluated against four cancer cell lines KB, Hep-G2, Lu-1 and MCF-7, using colorimetric MTT assay. […]
MTT assay was used to determine the cytotoxic activity of compounds with human cancer cell lines acquired from the American Type Culture Collection (ATCC): epidermoid carcinoma (KB, ATCC number CCL-17), hepatocellular carcinoma (HepG2, ATCC number HB-8065), lung adenocarcinoma LU-1 (ATCC number HTB - 57TM), breast adenocarcinoma MCF-7 (ATCC number HTB - 22TM. Cells were cultured in medium DMEM supplemented with 10% Fetal bovine serum (FBS), 1% Penicillin and Streptomycin and 1% L-glutamine, under a humidified atmosphere of 5% CO2 at 37°C.
Compounds were dissolved in DMSO at 40 mg/mL and a series of dilutions for each compound was prepared to final concentrations of 256, 64, 16, 4 and 1 μg/mL. Cells were separated with trypsin and seeded in each well with 3 x10^4 cells per ml and were treated with sample different concentrations on 96-well plates. Untreated cells represented the controls. After 72h of treatment, an MTT solution (10 μl, 5 mg/mL) of phosphate buffer was added to each well for 4 h until intracellular purple formazan crystals are visible. Remove MTT and add DMSO solution (100 μL). The optical density of the solution was determined by Epoch™ Microplate Spectrophotometer at 540 nm. The inhibition ratio was calculated based on the optical densities from the three replicate […]
as §13

[11] = Hep-G2 hepatocellular carcinoma cells (ATCC HB-8065)
[12] = KB epidermoid carcinoma cells (ATCC CCL-17)
[13] = Lu-1 lung adenocarcinoma cells (ATCC HTB-57)
[14] = MCF-7 breast adenocarcinoma cells (ATCC HTB-22)
[15] = IC50 ± SE, α-glucosidase inhibition

Compound | IC50 values, antioxidant test (DPPH) [2] [µg/mL] | IC50 [3] [µg/mL] | MIC [3] [µg/mL] | IC50 [4] [µg/mL] | MIC [4] [µg/mL] | IC50 [5] [µg/mL] | MIC [5] [µg/mL] | IC50 [6] [µg/mL] | MIC [6] [µg/mL] | IC50 [7] [µg/mL] | MIC [7] [µg/mL] | IC50 [8] [µg/mL] | MIC [8] [µg/mL] | IC50 [9] [µg/mL] | MIC [9] [µg/mL] | IC50 at 72 h [10, 11] [µg/mL] | IC50 at 72 h [10, 12] [µg/mL] | IC50 at 72 h [10, 13] [µg/mL] | IC50 [1, 15] [µM] | melting point [°C] | further results
Cc1[nH]c2c3c(c(O)cc2c1CO)[C@H]1C[C@@H]2[C@@]4(C)CCC[C@@](C)(CO)[C@@H]4CC[C@@]32C=C1C(C)C [Compound 38] | 227.76 ± 4.9 (≈ 491 µM) | 102 ± 7.21 (≈ 221 µM) | 256 (≈ 552 µM) | > 256 | > 256 | > 256 | > 256 | > 256 | > 256 | > 256 | > 256 | > 256 | > 256 | 34.3 ± 1.75 (≈ 74 µM) | > 256 | 50.8 ± 1.2 (≈ 110 µM) | 39.5 ± 1 (≈ 85.3 µM) | 58.1 ± 1.8 (≈ 125 µM) | – | – | IC50 ([1]; read-out: IC50 ± SE, α-glucosidase inhibition): 0.39 ± 0.03 µM; IC50 at 72 h [10, 14]: 60.4 ± 1.6 µg/mL (≈ 130 µM)
COC(=O)c1c(C)[nH]c2c3c(c(OCCC#N)cc12)C1CC2C3(C=C1C(C)C)CCC1C(C)(C(=O)OC)CCCC12C (stereo not drawn) [Compound 47, Methyl 1-(8′-cyanoethoxy)-13-isopropyl-1′-(ethoxycarbonyl)-7,10a,2′-trimethyl-5,6,6b,7,8,9,10,10a,10b,11,12,13-dodecahydro-12,4b-ethenophenanthro [2,1-g]indole-7-carboxylate] | – | – | – | – | – | – | – | – | – | – | – | – | – | – | – | – | – | – | 4.95 ± 0.25 | 127 to 129 | –
C#CCOC(=O)C1(C)CCCC2(C)C1CCC13C=C(C(C)C)C(CC12)c1c(O)cc2c(C(=O)OCC)c(C)[nH]c2c13 (stereo not drawn) [Compound 46, Ethyl 7-propynyl 1-hydroxy-13-isopropyl-7,10a,2′-trimethyl-5,6,6b,7,8,9,10,10a,10b, 11,12,13-dodecahydro-12,4b-ethenophenanthro [2,1-g]indole-7,1′-dicarboxylate] | – | – | – | – | – | – | – | – | – | – | – | – | – | – | – | – | – | – | > 255 | 98 to 100 | –
Cc1[nH]c2c3c(c(O)cc2c1C#N)[C@H]1C[C@@H]2[C@@]4(C)CCC[C@@](C)(C(=O)O)[C@@H]4CC[C@@]32C=C1C(C)C [Compound 44, 1′-Cyano-1-hydroxy-13-isopropyl-7,10a,2′-trimethyl-5,6,6b,7,8,9,10,10a,10b,11,12,13-dodecahydro-12,4b-ethenophenanthro [2,1-g]indole-7-carboxylic acid] | – | – | – | – | – | – | – | – | – | – | – | – | – | – | – | – | – | – | 68.22 ± 0.03 | 127 to 129 | α-GLy inhibitory activity, in words [1]: very good activity
CC(C)C1=CC23CCC4C(C)(C(=O)O)CCCC4(C)C2CC1c1c(OCCC#N)ccc(OCCC#N)c13 (stereo not drawn) [Compound 50, 1,4-Bis(2′-cyanoethoxy)-13-isopropyl-7,10a-dimethyl-6,6a,7,8,9,10,10a,10b,11,12-decahydro-5H-4b,12-ethenochrysene-7-carboxylic acid] | 105.50 ± 2.2 (≈ 204 µM) | 11.3 ± 0.77 (≈ 21.8 µM) | 64 (≈ 124 µM) | > 256 | > 256 | > 256 | > 256 | 116 ± 6.93 (≈ 224 µM) | > 256 | > 256 | > 256 | > 256 | > 256 | 11 ± 0.83 (≈ 21.3 µM) | 64 (≈ 124 µM) | 110 ± 2.6 (≈ 213 µM) | 57.3 ± 1.2 (≈ 111 µM) | 69.8 ± 1.5 (≈ 135 µM) | 0.23 ± 0.01 | 157 to 159 | IC50 at 72 h [10, 14]: 158 ± 4 µg/mL (≈ 305 µM)
